{
  "source": "patent US10137081B2",
  "about": "“Device and method for sustained release of antipsychotic medications” (DELPOR, INC., priority 2012, dated 2018)",
  "key": {"[1]": {"conditions": "general statement in the description; cited from earlier work"}, "[2]": {"assay": "In vivo pharmacokinetics, device as subcutaneous implant in rats", "description": "Six male Sprague Dawley rats (Charles River; Hollister, Calif.) of an initial weight of approximately 250-280 grams were administered a device as a subcutaneous implant. This study complied with all applicable sections of the Final Rules of the Animal Welfare Act regulations (9 CFR), the Public Health Service Policy on Humane Care and Use of Laboratory Animals, the Guide for the Care and Use of Laboratory Animals. […] All animals were weighed and the hair was clipped and removed from the dorsal area prior to dose administration. All animals were anesthetized with isoflurane via an induction chamber and maintained in the appropriate plane of anesthesia using isoflurane inhalant (1-3%) and a vaporizer. The dorsal area of the animal was prepared for implantation using appropriate surgical scrub and ethanol. Aseptic technique was used during implantation. A small incision was made in the skin and a single device implant gently placed in the dorsal subcutaneum using a sterile implanter tool. Following administration, the skin incision was closed with sterile suture. The animals were given an appropriate dose of analgesia (see table below) and allowed to recover.\nThe animals were euthanized following the blood collection.\nBody weights were measured on the day of test article administration and weekly thereafter.\nBlood volumes of approximately 0.8 to 1.0 mL were collected at each time point, placed into Vacutainer tubes containing EDTA, and kept on wet ice until processing. For preparation of plasma, tubes were mixed by gentle inversion several times and centrifuged under refrigeration (approximately 2-8° C.) for approximately 15 minutes at approximately 2800 rpm (˜1000×g). Plasma was split into two approximately equal aliquots and transferred to labeled screw-top tubes for storage, and stored at approximately (−60° C. to −80° C.) until shipment to the analytical lab.\nUsing aseptic technique, the implant site was opened up and a photo of the implant field was taken. Blood draws were made four hours and 24 hours after implant removal. Any observations were recorded.\nBioanalytical measurements of active moiety (risperidone+9-OH risperidone) were conducted by Integrated Analytical Solutions (Berkeley, Calif.) using an LCMS method validated to resolve risperidone and 9-OH risperidone in rat plasma with a lower limit of quantitation (LLQ) of 0.5 ng/mL for each analyte.\nPlasma concentrations were normalized to initial body weight for each time point and plotted versus time."}, "[3]": {"conditions": "for period of constant, zero-order in vitro release of risperidone: FIGS. 4, 5", "protocol": "Singly capped devices were weighed and tared on a conventional laboratory balance. The open end of each device was fitted with a small funnel, and each salt form of drug to be tested was loaded into the reservoir in small (about 10-about 50 mg) portions. When necessary, each added portion of solid was tamped down to the base of the reservoir prior to the next addition. This process was repeated until a specific loading target was met (generally about 250-500 mg). The filled reservoir was then capped with either a closed PEEK cap or a cap configuration identical to that used on the first end of the device, vide supra.\nThe assembled devices were weighed and then loaded into a custom-built vacuum hydrator. The air space within each device was evacuated by placing the device in a vacuum (<0.5 torr) for no less than 30 min. The devices were then back-filled with phosphate-buffered saline (pH 7.4) applied with a back pressure of 5-10 psi above atmospheric pressure for at least one hour. The devices were then retrieved from the hydration apparatus, wiped with a tissue to absorb any external fluid, weighed, and transferred to petri dishes containing buffer for the drug output assay, vide infra. The success of the hydration step was determined by the measuring the increase in mass before and after hydration.\nThe dish was placed in an incubator with pCO2 adjusted to give an average buffer pH of 7.4. Approximately once per day, the dishes were retrieved from the incubator. Each device was transferred to a new dish containing an equivalent amount of buffer and then returned to the incubator.\nThe retained receiving buffer samples were acidified with 3.0 mL of 0.1 M HCl and allowed to stand for approximately 1 hour. An aliquot of each sample (generally 100 μL) was transferred to a single well of a UV-transparent 96 well plate along with 100 μL of 0.1 M HCl diluent. After plating, the absorbance of each well was recorded at 270 nm using a Molecular Devices spectrophotometer. The absorbances were converted into concentrations (and ultimately output mass per day) by comparison to a standard curve. Samples that absorbed outside of the linear range of the instrument were diluted and re-read, as appropriate."}, "[4]": {"conditions": "subcutaneous implant, FIGS. 7, 8"}},
  "data": [
    {"compound": "Cc1nc2n(c(=O)c1CCN1CCC(c3noc4cc(F)ccc34)CC1)CCCC2", "note": "[risperidone free base, risperidone, reference compound]", "values": [
      {"measurement": "solubility in water", "setting": "[1]", "result": "extremely insoluble in water"}
    ]},
    {"compound": "dodecanoate", "values": [
      {"measurement": "solubility in water", "setting": "[1]", "result": "not appreciably more soluble than the free base form"}
    ]},
    {"compound": "CCCCC(=O)O.Cc1nc2n(c(=O)c1CCN1CCC(c3noc4cc(F)ccc34)CC1)CCCC2", "note": "[risperidone pentanoate]", "values": [
      {"measurement": "period of constant plasma level of active moiety", "setting": "[2]; [4]", "result": "greater than 60 days"},
      {"measurement": "initial period in which in vitro output is slightly above the therapeutic window", "setting": "[3]; FIG. 4, upper limit 2.5 mg/day", "result": 2, "unit": "weeks"},
      {"measurement": "period of constant, zero-order in vitro release of risperidone", "setting": "[3]", "result": "at least 60 days"}
    ]},
    {"compound": "risperidone hexanoate", "values": [
      {"measurement": "examination of the implant site", "setting": "[2]; after 118 days of subcutaneous implantation", "result": "no evidence of inflammation or other adverse tissue responses"},
      {"measurement": "plasma level of active moiety following removal of the device", "setting": "[2]; below LLQ, 4 h and 24 h after implant removal at day 118", "result": "< 0.5", "unit": "ng/mL"},
      {"measurement": "plasma level of active moiety (risperidone plus 9-OH risperidone)", "setting": "[2]; subcutaneous implant, 290-300 mg salt per device, normalized to initial body weight, constant level after 4 hour burst", "result": "about 20 ng/mL"},
      {"measurement": "period of constant plasma level of active moiety", "setting": "[2]; [4]", "result": 118, "unit": "days"},
      {"measurement": "period of constant plasma level of active moiety", "setting": "[2]; subcutaneous implant, until device removal, FIG. 7", "result": "about 4 months"},
      {"measurement": "period of in vitro release of risperidone within the therapeutic range", "setting": "[3]; Example 6, devices 172, 180, 360 and 364, followed for 90-100 days, FIG. 5", "result": "≥ 90", "unit": "days"},
      {"measurement": "period of in vitro release at a constant rate within the therapeutic range", "setting": "[3]; Example 7, followed for 6 months, FIG. 6", "result": 6, "unit": "months"},
      {"measurement": "period of constant, zero-order in vitro release of risperidone", "setting": "[3]", "result": "30 to 90", "unit": "days"}
    ]},
    {"compound": "Cc1nc2n(c(=O)c1CCN1CCC(c3noc4cc(F)ccc34)CC1)CCCC2.O=C(O)c1ccccc1", "note": "[risperidone benzoate, reference compound]", "values": [
      {"measurement": "in vitro output pattern relative to the therapeutic window", "setting": "[3]; FIG. 2, upper limit 2.5 mg/day", "result": "rises to high levels before falling"}
    ]}
  ]
}
